Reference: ChEMBL document CHEMBL5236636, “Synthesis, anticancer evaluation, and molecular docking studies of thiazolyl-pyrazoline derivatives” (Bioorg Med Chem Lett, 2023)
Activity calls are given as the source filed them. No cut-off for these calls is given here.

Assays:
A549 [1] = assay: Antiproliferative activity against human A549 cells incubated for 24 hrs by MTT assay; type: functional, cell-based; conditions: A549, 24 h
A-375 [2] = assay: Antiproliferative activity against human A-375 cells incubated for 24 hrs by MTT assay; type: functional, cell-based; conditions: A-375, 24 h
[3] = Selectivity index, ratio of IC50 for rabbit articular chondrocytes to IC50 for human A-375
A-375 [4] = assay: Antimetastatic activity against human A-375 cells assessed as reduction in MMP-2 expression at 100 uM preincubated with SNP for 3 hrs followed by compound addition and measured after 24 hrs by gelatin zymography; type: functional, cell-based
A549 [5] = assay: Antimetastatic activity against human A549 cells assessed as reduction in MMP-2 expression at 100 uM preincubated with SNP for 3 hrs followed by compound addition and measured after 24 hrs by gelatin zymography; type: functional, cell-based
A549 [6] = assay: Antimetastatic activity against human A549 cells assessed as reduction in MMP-9 expression at 100 uM preincubated with SNP for 3 hrs followed by compound addition and measured after 24 hrs by gelatin zymography; type: functional, cell-based
A-375 [7] = assay: Antimetastatic activity against human A-375 cells assessed as reduction in MMP-9 expression at 100 uM preincubated with SNP for 3 hrs followed by compound addition and measured after 24 hrs by gelatin zymography; type: functional, cell-based
[8] = Cytotoxicity against rabbit articular chondrocytes incubated for 24 hrs by MTT assay; type: toxicity, cell-based, Oryctolagus cuniculus, Chondrocyte
A549 [9] = assay: Potency index, ratio of erlotinib IC50 to test compound IC50 for human A549 cells; type: functional
A-375 [10] = assay: Potency index, ratio of erlotinib IC50 to test compound IC50 for human A-375 cells; type: functional
A-375 [11] = assay: Antiinflammatory activity against human A-375 cells assessed as reduction in COX-2 expression at 100 uM preincubated with SNP for 3 hrs followed by compound addition and measured after 24 hrs by Western blot analysis; type: functional, cell-based
A549 [12] = assay: Antiinflammatory activity against human A549 cells assessed as reduction in COX-2 expression at 100 uM preincubated with SNP for 3 hrs followed by compound addition and measured after 24 hrs by Western blot analysis; type: functional, cell-based

IC50 (A549 [1]) | IC50 (A-375 [2]) | Ratio IC50 [3] | SMILES | Activity (A-375 [4]) | Activity (A549 [5]) | Activity (A549 [6]) | Activity (A-375 [7]) | IC50 at 24 h [8] | Ratio IC50 (A549 [9]) | Ratio IC50 (A-375 [10]) | Activity (A-375 [11]) | Activity (A549 [12])
52 µM | 42.8 µM | – | Clc1ccc(C2CC(c3ccccc3)=NN2c2nc(-c3ccc(Br)cc3)cs2)cc1 (configuration not stated) | – | – | – | – | – | – | – | – | –
126 µM | 103 µM | – | Cc1ccc(C2CC(c3ccccc3)=NN2c2nc(-c3ccc(Br)cc3)cs2)cc1 (configuration not stated) | – | – | – | – | – | – | – | – | –
37.4 µM | 40.5 µM | – | COc1ccc(C2CC(c3ccccc3)=NN2c2nc(-c3ccc(Br)cc3)cs2)cc1 (configuration not stated) | – | – | – | – | – | – | – | – | –
74.2 µM | 97.5 µM | – | Brc1ccc(-c2csc(N3N=C(c4ccccc4)CC3c3ccc(Br)cc3)n2)cc1 (configuration not stated) | – | – | – | – | – | – | – | – | –
47.8 µM | 55.7 µM | – | COc1ccc(C2=NN(c3nc(-c4ccc(Br)cc4)cs3)C(c3ccc(Cl)cc3)C2)cc1 (configuration not stated) | – | – | – | – | – | – | – | – | –

Continued, compound first:

SMILES | IC50 (A549 [1]) | IC50 (A-375 [2]) | Ratio IC50 [3] | Activity (A-375 [4]) | Activity (A549 [5]) | Activity (A549 [6]) | Activity (A-375 [7]) | IC50 at 24 h [8] | Ratio IC50 (A549 [9]) | Ratio IC50 (A-375 [10]) | Activity (A-375 [11]) | Activity (A549 [12])
COc1ccc(C2=NN(c3nc(-c4ccc(Br)cc4)cs3)C(c3ccc(C)cc3)C2)cc1 (configuration not stated) | 26.1 µM | 20.1 µM | 7.53 | inactive | inactive | inactive | inactive | 151 µM | – | – | – | –
COc1ccc(C2=NN(c3nc(-c4ccc(Br)cc4)cs3)C(c3ccc(F)cc3)C2)cc1 (configuration not stated) | 20.3 µM | 16.1 µM | 9.04 | inactive | inactive | inactive | inactive | 146 µM | 1.7 | 1.7 | Active | –
COc1cc(C2CC(c3ccccc3)=NN2c2nc(-c3ccc(Br)cc3)cs2)ccc1OCc1ccccc1 (configuration not stated) | 25.9 µM | 18.4 µM | 19.4 | inactive | inactive | inactive | inactive | 357 µM | – | – | Active | Active
C#Cc1cccc(Nc2ncnc3cc(OCCOC)c(OCCOC)cc23)c1 [ERLOTINIB] | 34.2 µM | 25.9 µM | 2.45 | – | – | – | – | 63.5 µM | – | – | – | –
COc1ccc(C2=NN(c3nc(-c4ccc(Br)cc4)cs3)C(c3ccc(OCc4ccccc4)c(OC)c3)C2)cc1 (configuration not stated) | 27.3 µM | 20.6 µM | 21.1 | inactive | inactive | inactive | inactive | 435 µM | – | – | Active | Active
COc1ccc(C2=NN(c3nc(-c4ccc(Br)cc4)cs3)C(c3ccc(Br)cc3)C2)cc1 (configuration not stated) | 45.7 µM | 31.6 µM | – | – | – | – | – | – | – | – | – | –
COc1ccc(C2=NN(c3nc(-c4ccc(Br)cc4)cs3)C(c3ccc(OC)cc3)C2)cc1 (configuration not stated) | 51.8 µM | 45.1 µM | – | – | – | – | – | – | – | – | – | –
